Measurements published in article PMC11172384, “Specific Mutations Reverse Regulatory Effects of Adenosine Phosphates and Increase Their Binding Stoichiometry in CBS Domain-Containing Pyrophosphatase” (International Journal of Molecular Sciences, 2024).
One block for each compound: values may come before it.

What was measured:
[1] = molecular target: T1, dhPPase (Desulfitobacterium hafniense CBS-PPase) (Desulfitobacterium hafniense, UniProt B8FP42); assay: isothermal titration calorimetry, single-binding-site model; settings: read-out: KN
T1 construct: gene Dhaf_1515; full-length, tag-less, recombinant in E. coli BL21 (pET-42b); homotetramer
T1 sequence (B8FP42 1-544): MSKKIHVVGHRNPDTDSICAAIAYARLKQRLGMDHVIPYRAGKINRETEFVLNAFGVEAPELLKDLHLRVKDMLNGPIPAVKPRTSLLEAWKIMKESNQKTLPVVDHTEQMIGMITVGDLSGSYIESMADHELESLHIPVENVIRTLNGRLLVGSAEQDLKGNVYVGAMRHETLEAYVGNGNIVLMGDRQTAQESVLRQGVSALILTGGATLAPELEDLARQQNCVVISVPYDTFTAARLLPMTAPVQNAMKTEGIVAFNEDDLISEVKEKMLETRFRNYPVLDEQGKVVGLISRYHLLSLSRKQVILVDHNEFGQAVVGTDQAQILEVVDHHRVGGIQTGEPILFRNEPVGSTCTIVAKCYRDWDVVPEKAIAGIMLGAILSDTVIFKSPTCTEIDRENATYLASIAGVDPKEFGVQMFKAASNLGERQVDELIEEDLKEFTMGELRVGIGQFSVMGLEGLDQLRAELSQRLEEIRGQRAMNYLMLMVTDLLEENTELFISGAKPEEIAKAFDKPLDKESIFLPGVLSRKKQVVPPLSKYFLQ
Text: (§1) isothermal titration calorimetry, single-binding-site model on dhPPase (Desulfitobacterium hafniense CBS-PPase)

[2] = molecular target: T2, dhPPase (Desulfitobacterium hafniense CBS-PPase) (Desulfitobacterium hafniense, UniProt B8FP42, E126A); assay: as above; settings: read-out: KN
T2 construct: gene Dhaf_1515; full-length, tag-less, recombinant in E. coli BL21 (pET-42b); homotetramer
T2 sequence (B8FP42 entry or part of it E126A): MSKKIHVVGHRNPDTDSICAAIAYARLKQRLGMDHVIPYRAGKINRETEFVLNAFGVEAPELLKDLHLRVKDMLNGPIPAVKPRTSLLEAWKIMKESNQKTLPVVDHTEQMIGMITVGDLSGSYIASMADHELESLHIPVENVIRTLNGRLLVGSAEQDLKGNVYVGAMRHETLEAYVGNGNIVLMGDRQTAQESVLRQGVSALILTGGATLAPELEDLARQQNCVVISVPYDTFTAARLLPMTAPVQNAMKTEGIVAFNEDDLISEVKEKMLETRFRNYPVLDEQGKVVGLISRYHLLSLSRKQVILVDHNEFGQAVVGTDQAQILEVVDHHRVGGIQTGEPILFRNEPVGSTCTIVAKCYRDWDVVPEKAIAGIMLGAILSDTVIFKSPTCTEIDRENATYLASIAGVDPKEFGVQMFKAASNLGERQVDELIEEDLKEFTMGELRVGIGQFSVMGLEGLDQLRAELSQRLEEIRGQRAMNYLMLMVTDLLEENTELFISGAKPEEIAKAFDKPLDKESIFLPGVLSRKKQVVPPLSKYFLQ
Text: as §1

[3] = molecular target: T3, dhPPase (Desulfitobacterium hafniense CBS-PPase) (Desulfitobacterium hafniense, UniProt B8FP42, K100A); assay: as above; settings: read-out: KN
T3 construct: gene Dhaf_1515; full-length, tag-less, recombinant in E. coli BL21 (pET-42b); homotetramer
T3 sequence (B8FP42 entry or part of it K100A): as the sequence (B8FP42 entry or part of it E126A) above, with K100A, A126E counted along it
Text: as §1

[4] = molecular target: T4, dhPPase (Desulfitobacterium hafniense CBS-PPase) (Desulfitobacterium hafniense, UniProt B8FP42, G118A); assay: as above; settings: read-out: KN
T4 construct: gene Dhaf_1515; full-length, tag-less, recombinant in E. coli BL21 (pET-42b); homotetramer
T4 sequence (B8FP42 entry or part of it G118A): as the sequence (B8FP42 entry or part of it E126A) above, with G118A, A126E counted along it
Text: as §1

[5] = molecular target: T5, dhPPase (Desulfitobacterium hafniense CBS-PPase) (Desulfitobacterium hafniense, UniProt B8FP42, G118M); assay: as above; settings: read-out: KN
T5 construct: gene Dhaf_1515; full-length, tag-less, recombinant in E. coli BL21 (pET-42b); homotetramer
T5 sequence (B8FP42 entry or part of it G118M): as the sequence (B8FP42 entry or part of it E126A) above, with G118M, A126E counted along it
Text: as §1

[6] = molecular target: T6, dhPPase (Desulfitobacterium hafniense CBS-PPase) (Desulfitobacterium hafniense, UniProt B8FP42, K95A); assay: as above; settings: read-out: KN
T6 construct: gene Dhaf_1515; full-length, tag-less, recombinant in E. coli BL21 (pET-42b); homotetramer
T6 sequence (B8FP42 entry or part of it K95A): as the sequence (B8FP42 entry or part of it E126A) above, with K95A, A126E counted along it
Text: as §1

[7] = molecular target: T5, dhPPase (Desulfitobacterium hafniense CBS-PPase); assay: activation of PPi hydrolysis, continuous Pi assay, Hill fit; assay type: biochemical; settings: read-out: Adenosine Phosphate and Parameter Value ^a / Ap4A / K
Text: (§2) activation of PPi hydrolysis, continuous Pi assay, Hill fit on dhPPase (Desulfitobacterium hafniense CBS-PPase)

[8] = molecular target: T3, dhPPase (Desulfitobacterium hafniense CBS-PPase); assay: as above; assay type: biochemical; settings: read-out: Adenosine Phosphate and Parameter Value ^a / Ap4A / K
Text: as §2

[9] = molecular target: T7, dhPPase (Desulfitobacterium hafniense CBS-PPase) (Desulfitobacterium hafniense, UniProt B8FP42, V117A); assay: as above; assay type: biochemical; settings: read-out: Adenosine Phosphate and Parameter Value ^a / Ap4A / K
T7 construct: gene Dhaf_1515; full-length, tag-less, recombinant in E. coli BL21 (pET-42b); homotetramer
T7 sequence (B8FP42 entry or part of it V117A): as the sequence (B8FP42 entry or part of it E126A) above, with V117A, A126E counted along it
Text: as §2

[10] = molecular target: T8, dhPPase (Desulfitobacterium hafniense CBS-PPase) (Desulfitobacterium hafniense, UniProt B8FP42, V117T); assay: as above; assay type: biochemical; settings: read-out: Adenosine Phosphate and Parameter Value ^a / Ap4A / K
T8 construct: gene Dhaf_1515; full-length, tag-less, recombinant in E. coli BL21 (pET-42b); homotetramer
T8 sequence (B8FP42 entry or part of it V117T): as the sequence (B8FP42 entry or part of it E126A) above, with V117T, A126E counted along it
Text: as §2

[11] = molecular target: T1, dhPPase (Desulfitobacterium hafniense CBS-PPase); assay: continuous Pi assay; assay type: biochemical; settings: pH 7.2, 25 °C, 5.23 mM MgCl2, 140 µM PPi

Compound: Nc1ncnc2c1ncn2[C@@H]1O[C@H](COP(=O)(O)OP(=O)(O)OP(=O)(O)OP(=O)(O)OC[C@H]2O[C@@H](n3cnc4c(N)ncnc43)[C@H](O)[C@@H]2O)[C@@H](O)[C@H]1O [Ap4A]
EC50 [7]: 28 ± 1 nM | EC50 [8]: 11.5 ± 0.1 nM | EC50 [9]: 120 ± 10 nM | EC50 [10]: 1.3 ± 0.05 nM

Compound: O=P(O)(O)OP(=O)(O)O [PPi]
continuous Pi assay [11]: The initial rates of PPi hydrolysis were measured using a continuous Pi assay

Next, values leading:

Kd [1]: 1000 ± 200 nM | Kd [2]: 600 ± 100 nM | Kd [3]: 6000 ± 2000 nM
Compound: Nc1ncnc2c1ncn2[C@@H]1O[C@H](COP(=O)(O)OP(=O)(O)O)[C@@H](O)[C@H]1O [ADP]

Kd [1]: 800 ± 300 nM | Kd [4]: 4200 ± 600 nM | Kd [5]: 520 ± 70 nM | Kd [3]: 1300 ± 200 nM | Kd [6]: 4600 ± 700 nM
Compound: Nc1ncnc2c1ncn2[C@@H]1O[C@H](COP(=O)(O)O)[C@@H](O)[C@H]1O [AMP]

Kd [1]: 2100 ± 300 nM
Compound: Nc1ncnc2c1ncn2[C@@H]1O[C@H](COP(=O)(O)OP(=O)(O)OP(=O)(O)O)[C@@H](O)[C@H]1O [ATP]
